Measured values taken from US10800792B2, “Inhibitors of Bruton's tyrosine kinase and method of their use” (JANSSEN PHARMACEUTICA NV, priority 2015, dated 2020).
Like-named read-outs stand apart in the source and are kept apart here.

Target: unphosphorylated-BTK kinase domain (UP-BTK), GST-tagged human BTK (389-659aa) (Homo sapiens (Human), UniProt Q06187)
Assay: BTK kinase Lanthascreen binding assay
Conditions: pIC50 = negative log of the IC50 in molar; for IC50: read-out: BTK_I_binding pIC50 (converted)
In short: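 Lanthascreen competition binding; test compound vs fluorescent tracer on unphosphorylated BTK. Output: pIC50 (−log IC50, M).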

[1] = 60 minutes incubation, 50 nM Tracer 236
[2] = unphosphorylated-BTK kinase domain, 50 nM Tracer 236, 60 minutes
[3] = Lanthascreen tracer competition, 60 minutes incubation
[4] = unphosphorylated-BTK kinase domain, 60 minutes incubation, 50 nM Tracer 236

unphosphorylated-BTK kinase domain (UP-BTK), GST-tagged human BTK (389-659aa), sequence (Q06187 389-659): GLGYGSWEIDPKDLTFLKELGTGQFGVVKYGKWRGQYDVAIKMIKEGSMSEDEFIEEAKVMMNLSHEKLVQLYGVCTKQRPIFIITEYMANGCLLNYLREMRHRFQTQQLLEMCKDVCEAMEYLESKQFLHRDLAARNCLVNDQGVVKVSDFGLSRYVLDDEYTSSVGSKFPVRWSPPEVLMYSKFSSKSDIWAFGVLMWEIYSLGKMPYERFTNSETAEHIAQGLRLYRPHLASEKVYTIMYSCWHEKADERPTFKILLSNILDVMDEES

## CC(C)=C(F)C(=O)N1CCC[C@@H](NC(=O)c2sc3nccc4c3c2NC(=O)N4c2ccc(Oc3ccccc3)cc2C)C1 [Example 263, (R)—N-(1-(2-Fluoro-3-methylbut-2-enoyl)piperidin-3-yl)-5-(2-methyl-4-phenoxyphenyl)-4-oxo-4,5-dihydro-3H-1-thia-3,5,8-triazaacenaphthylene-2-carboxamide]
[1]
  BTK_I_binding pIC50: 6.4

## C=CC(=O)N1CC[C@@H](NC(=O)c2sc3nccc4c3c2NC(=O)N4c2ccc(OC3CCCCC3)cc2C)C1 [Example 39, (R)—N-(1-Acryloylpyrrolidin-3-yl)-5-(4-(cyclohexyloxy)-2-methylphenyl)-4-oxo-4,5-dihydro-3H-1-thia-3,5,8-triazaacenaphthylene-2-carboxamide]
[1]
  BTK_I_binding pIC50: 7.4

## Cc1cc(Oc2ccccc2)c(F)cc1N1C(=O)Nc2c(C(=O)N[C@@H]3CCCOC3)sc3nccc1c23 [Example 305, (R)-5-(5-Fluoro-2-methyl-4-phenoxyphenyl)-4-oxo-N-(tetrahydro-2H-pyran-3-yl)-4,5-dihydro-3H-1-thia-3,5,8-triazaacenaphthylene-2-carboxamide]
[2]
  BTK_I_binding pIC50: 6.0

## C=CC(=O)N1CCC[C@@H](NC(=O)c2sc3nccc4c3c2NC(=O)N4c2ccc(Oc3cccc4ccoc34)cc2C)C1 [Example 16, (R)—N-(1-Acryloylpiperidin-3-yl)-5-(4-(benzofuran-7-yloxy)-2-methylphenyl)-4-oxo-4,5-dihydro-3H-1-thia-3,5,8-triazaacenaphthylene-2-carboxamide]
[1]
  BTK_I_binding pIC50: 7.3

## C=CC(=O)N1CCC[C@@H](NC(=O)c2sc3nccc4c3c2NC(=O)N4c2ccc(OC(C)C)nc2C)C1 (single isomer, unassigned) [Example 757, (R)—N-(1-Acryloylpiperidin-3-yl)-5-(*R)-(6-isopropoxy-2-methylpyridin-3-yl)-4-oxo-4,5-dihydro-3H-1-thia-3,5,8-triazaacenaphthylene-2-carboxamide]
[3]
  BTK_I_binding pIC50: <6

## C=CC(=O)N1CCC[C@@H](NC(=O)c2sc3nccc4c3c2NC(=O)N4c2ccc(Oc3ccccc3)cc2C(F)(F)F)C1 [Example 278, (R)—N-(1-Acryloylpiperidin-3-yl)-4-oxo-5-(4-phenoxy-2-(trifluoromethyl)phenyl)-4,5-dihydro-3H-1-thia-3,5,8-triazaacenaphthylene-2-carboxamide]
[1]
  BTK_I_binding pIC50: 6.2

## O=C(N[C@H]1CCN(C(=O)c2ccccc2)C1)c1sc2nccc3c2c1NC(=O)N3c1ccc(Oc2ccccc2)cc1 [Example 940, (S)—N-(1-benzoylpyrrolidin-3-yl)-4-oxo-5-(4-phenoxyphenyl)-4,5-dihydro-3H-1-thia-3,5,8-triazaacenaphthylene-2-carboxamide]
[4]
  BTK_I_binding pIC50: 5.9

## C=CC(=O)N1C[C@H](O)C[C@@H](NC(=O)c2sc3nccc4c3c2NC(=O)N4c2ccc(Oc3ccccc3)cc2C)C1 [Example 6, N-((3R,5R)-1-Acryloyl-5-hydroxypiperidin-3-yl)-5-(2-methyl-4-phenoxyphenyl)-4-oxo-4,5-dihydro-3H-1-thia-3,5,8-triazaacenaphthylene-2-carboxamide]
[1]
  IC50: 12.6 nM

## Cc1cc(Oc2ccccc2)ccc1N1C(=O)Nc2c(C(=O)N[C@@H]3CCOC3)sc3nccc1c23 (single isomer, unassigned) [Example 80, (R)-5-(*S)-(2-Methyl-4-phenoxyphenyl)-4-oxo-N-(tetrahydrofuran-3-yl)-4,5-dihydro-3H-1-thia-3,5,8-triazaacenaphthylene-2-carboxamide]
[1]
  BTK_I_binding pIC50: 7.8

## Cc1cc(Oc2ccccc2)ccc1N1C(=O)Nc2c(C(=O)N[C@@H]3CCCN(C#N)C3)sc3nccc1c23 (single isomer, unassigned) [Example 35, (R)—N-(1-Cyanopiperidin-3-yl)-5-(*S)-(2-methyl-4-phenoxyphenyl)-4-oxo-4,5-dihydro-3H-1-thia-3,5,8-triazaacenaphthylene-2-carboxamide]
[1]
  IC50: 31.6 nM

## O=C(N[C@@H]1CCCNC1)c1sc2nccc3c2c1NC(=O)N3c1ccc(OC2CCC2)nc1 [Example 744, (R)-5-(6-Cyclobutoxypyridin-3-yl)-4-oxo-N-(piperidin-3-yl)-4,5-dihydro-3H-1-thia-3,5,8-triazaacenaphthylene-2-carboxamide]
[3]
  BTK_I_binding pIC50: 5.7

## Cc1cc(Oc2ccccc2)ccc1N1C(=O)Nc2c(C(=O)N[C@@H]3CCCN(C(=O)CN4CCCC4)C3)sc3nccc1c23 [Example 389, (R)-5-(2-Methyl-4-phenoxyphenyl)-4-oxo-N-(1-(2-(pyrrolidin-1-yl)acetyl)piperidin-3-yl)-4,5-dihydro-3H-1-thia-3,5,8-triazaacenaphthylene-2-carboxamide]
[2]
  BTK_I_binding pIC50: 7.0

## Cc1cc(Oc2ccccc2)ccc1N1C(=O)Nc2c(C(=O)N[C@H]3CCCN(C(=O)/C(C#N)=C/C(C)(C)C)C3)sc3nccc1c23 [Example 904, (S,E)-N-(1-(2-Cyano-4,4-dimethylpent-2-enoyl)piperidin-3-yl)-5-(2-methyl-4-phenoxyphenyl)-4-oxo-4,5-dihydro-3H-1-thia-3,5,8-triazaacenaphthylene-2-carboxamide]
[4]
  BTK_I_binding pIC50: 6.7

## [2H]c1c([2H])c([2H])c(Oc2ccc(N3C(=O)Nc4c(C(=O)N[C@@H]5CCN(C(=O)C=C)C5)sc5nccc3c45)c(C)c2)c([2H])c1[2H] [Example 376, (R)—N-(1-Acryloylpyrrolidin-3-yl)-5-(2-methyl-4-(2,3,4,5,6-pentadeuteriophenoxy)phenyl)-4-oxo-4,5-dihydro-3H-1-thia-3,5,8-triazaacenaphthylene-2-carboxamide]
[2]
  IC50: 15.8 nM

## C=CC(=O)N1CCC[C@@H](NC(=O)c2sc3nccc4c3c2NC(=O)N4c2ccc(OC3CCCC3)cc2C)C1 [Example 693, (R)—N-(1-Acryloylpiperidin-3-yl)-5-(4-(cyclopentyloxy)-2-methylphenyl)-4-oxo-4,5-dihydro-3H-1-thia-3,5,8-triazaacenaphthylene-2-carboxamide]
[3]
  BTK_I_binding pIC50: 7.9

## Cc1cc(Oc2ccccc2)ccc1N1C(=O)Nc2c(C(=O)N[C@H]3CNC[C@H](F)C3)sc3nccc1c23 [Example 138, N-((3R,5R)-5-fluoropiperidin-3-yl)-5-(2-methyl-4-phenoxyphenyl)-4-oxo-4,5-dihydro-3H-1-thia-3,5,8-triazaacenaphthylene-2-carboxamide]
[1]
  BTK_I_binding pIC50: 7.0

## Cc1cc(Oc2cccc(F)c2)ccc1N1C(=O)Nc2c(C(=O)N[C@@H]3CCCN(C)C3)sc3nccc1c23 [Example 214, (R)-5-(4-(3-Fluorophenoxy)-2-methylphenyl)-N-(1-methylpiperidin-3-yl)-4-oxo-4,5-dihydro-3H-1-thia-3,5,8-triazaacenaphthylene-2-carboxamide]
[1]
  BTK_I_binding pIC50: 6.8

## O=C(N[C@@H]1CCNC[C@@H]1O)c1sc2nccc3c2c1NC(=O)N3c1ccc(Oc2ccccc2)cc1 (relative stereo) [Example 659, N-(cis-3-Hydroxypiperidin-4-yl)-4-oxo-5-(4-phenoxyphenyl)-4,5-dihydro-3H-1-thia-3,5,8-triazaacenaphthylene-2-carboxamide]
[3]
  IC50: 251 nM

## Cc1cc(Oc2ccccc2)ccc1N1C(=O)Nc2c(C(=O)N[C@@H]3CCCN(C(=O)CCO)C3)sc3nccc1c23 [Example 75, (R)—N-(1-(3-Hydroxypropanoyl)piperidin-3-yl)-5-(2-methyl-4-phenoxyphenyl)-4-oxo-4,5-dihydro-3H-1-thia-3,5,8-triazaacenaphthylene-2-carboxamide]
[1]
  BTK_I_binding pIC50: 7.2
